Experimental data published in patent US8815909B2, “Diaminocyclohexane compounds and uses thereof” (Bristol-Myers Squibb Company, priority 2011, dated 2014).

Target: T1, human Y4 receptor (Homo sapiens, UniProt P50391)
T1 construct: expressed in transfected cells
Assay: NPY4 cAMP HTRF Agonist Assay (inhibitory cAMP assay, Gi activation by Y4 agonism)
Assay type: cell-based
Conditions: second TABLE 1, R2 is Phenyl-CF3; read-out: hY4 CAMP EC50
How it was run: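 CHO cells stably expressing human Y4, 5000/well, exposed to compound with forskolin and IBMX in PBS for 30 min at room temperature. Gi-mediated inhibition of cAMP then measured by HTRF after 1 h with d2-conjugate and anti-cAMP cryptate.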

T1 sequence (P50391 whole entry): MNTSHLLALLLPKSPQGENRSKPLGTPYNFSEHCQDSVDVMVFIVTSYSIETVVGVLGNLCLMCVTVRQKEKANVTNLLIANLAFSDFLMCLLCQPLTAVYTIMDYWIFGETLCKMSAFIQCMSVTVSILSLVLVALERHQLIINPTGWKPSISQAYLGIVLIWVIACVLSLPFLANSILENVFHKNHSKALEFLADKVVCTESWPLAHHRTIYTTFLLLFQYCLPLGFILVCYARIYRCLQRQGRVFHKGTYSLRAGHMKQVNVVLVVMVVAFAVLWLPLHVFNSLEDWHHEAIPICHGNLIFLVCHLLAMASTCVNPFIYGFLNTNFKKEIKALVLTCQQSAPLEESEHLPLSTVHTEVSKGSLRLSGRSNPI

SMILES	EC50
FC(F)(F)c1ccc(N2CCC[C@H](N[C@@H]3CCCC[C@H]3Nc3ncc(-c4cccc(-c5nnn[nH]5)c4)o3)C2)cc1 [Example 122]	319 nM
CN(C)C(=O)c1cccc(-c2cnc(N[C@@H]3CCCC[C@H]3N[C@H]3CCCN(c4ccc(C(F)(F)F)cc4)C3)o2)c1 [Example 123]	234 nM
CCNC(=O)c1cccc(-c2cnc(N[C@@H]3CCCC[C@H]3N[C@H]3CCCN(c4ccc(C(F)(F)F)cc4)C3)o2)c1 [Example 124]	2 nM
CC(C)NC(=O)c1cccc(-c2cnc(N[C@@H]3CCCC[C@H]3N[C@H]3CCCN(c4ccc(C(F)(F)F)cc4)C3)o2)c1 [Example 125]	11 nM
CC(C)(O)c1cccc(-c2ccnc(N[C@@H]3CCCC[C@H]3N[C@H]3CCCN(c4ccc(C(F)(F)F)cc4)C3)c2)c1 [Example 126]	48 nM
NCc1cccc(-c2ccnc(N[C@@H]3CCCC[C@H]3N[C@H]3CCCN(c4ccc(C(F)(F)F)cc4)C3)c2)c1 [Example 127]	79 nM
CC(C)(C)NC(=O)c1cccc(-c2ccnc(N[C@@H]3CCCC[C@H]3N[C@H]3CCCN(c4ccc(C(F)(F)F)cc4)C3)c2)c1 [Example 128]	227 nM
OCc1cccc(-c2ccnc(N[C@@H]3CCCC[C@H]3N[C@H]3CCCN(c4ccc(C(F)(F)F)cc4)C3)c2)c1 [Example 129]	41 nM
CNC(=O)c1cccc(-c2ccnc(N[C@@H]3CCCC[C@H]3N[C@H]3CCCN(c4ccc(C(F)(F)F)cc4)C3)c2)c1 [Example 130]	1 nM
CN(C)Cc1cccc(-c2ccnc(N[C@@H]3CCCC[C@H]3N[C@H]3CCCN(c4ccc(C(F)(F)F)cc4)C3)c2)c1 [Example 131]	1110 nM
COC(=O)Nc1cccc(-c2ccnc(N[C@@H]3CCCC[C@H]3N[C@H]3CCCN(c4ccc(C(F)(F)F)cc4)C3)c2)c1 [Example 132]	3 nM
O=C1OCCN1c1cccc(-c2cnc(N[C@@H]3CCCC[C@H]3N[C@H]3CCCN(c4ccc(C(F)(F)F)cc4)C3)o2)c1 [Example 133]	8 nM
CC(C)OC(=O)Nc1cccc(-c2ccnc(N[C@@H]3CCCC[C@H]3N[C@H]3CCCN(c4ccc(C(F)(F)F)cc4)C3)c2)c1 [Example 134]	13 nM
Oc1ccc(-c2ccnc(N[C@@H]3CCCC[C@H]3N[C@H]3CCCN(c4ccc(C(F)(F)F)cc4)C3)c2)cc1 [Example 135]	27 nM
CCOC(=O)Nc1cccc(-c2ccnc(N[C@@H]3CCCC[C@H]3N[C@H]3CCCN(c4ccc(C(F)(F)F)cc4)C3)c2)c1 [Example 136]	2 nM
O=C(Nc1cccc(-c2ccnc(N[C@@H]3CCCC[C@H]3N[C@H]3CCCN(c4ccc(C(F)(F)F)cc4)C3)c2)c1)OCCF [Example 137]	2 nM
CCNC(=O)c1cccc(-c2ccnc(N[C@@H]3CCCC[C@H]3N[C@H]3CCCN(c4ccc(C(F)(F)F)cc4)C3)c2)c1 [Example 138]	9 nM
CCCNC(=O)c1cccc(-c2ccnc(N[C@@H]3CCCC[C@H]3N[C@H]3CCCN(c4ccc(C(F)(F)F)cc4)C3)c2)c1 [Example 139]	29 nM
CC(=O)NCc1cccc(-c2ccnc(N[C@@H]3CCCC[C@H]3N[C@H]3CCCN(c4ccc(C(F)(F)F)cc4)C3)c2)c1 [Example 140]	1 nM
CCCCNC(=O)c1cccc(-c2ccnc(N[C@@H]3CCCC[C@H]3N[C@H]3CCCN(c4ccc(C(F)(F)F)cc4)C3)c2)c1 [Example 141]	227 nM
CCNCc1cccc(-c2ccnc(N[C@@H]3CCCC[C@H]3N[C@H]3CCCN(c4ccc(C(F)(F)F)cc4)C3)c2)c1 [Example 142]	58 nM

SMILES	EC50
CC(C)NCc1cccc(-c2ccnc(N[C@@H]3CCCC[C@H]3N[C@H]3CCCN(c4ccc(C(F)(F)F)cc4)C3)c2)c1 [Example 143]	107 nM
CNCc1cccc(-c2ccnc(N[C@@H]3CCCC[C@H]3N[C@H]3CCCN(c4ccc(C(F)(F)F)cc4)C3)c2)c1 [Example 144]	26 nM
FC(F)(F)c1ccc(N2CCC[C@H](N[C@@H]3CCCC[C@H]3Nc3cc(-c4cccc5c4CCNC5)ccn3)C2)cc1 [Example 145]	905 nM
FC(F)(F)c1ccc(N2CCC[C@H](N[C@@H]3CCCC[C@H]3Nc3cc(-c4ccc5c(c4)CNCC5)ccn3)C2)cc1 [Example 146]	726 nM
CC(C)NC(=O)c1cccc(-c2ccnc(N[C@@H]3CCCC[C@H]3N[C@H]3CCCN(c4ccc(C(F)(F)F)cc4)C3)c2)c1 [Example 147]	20 nM
CC(C)CNC(=O)c1cccc(-c2ccnc(N[C@@H]3CCCC[C@H]3N[C@H]3CCCN(c4ccc(C(F)(F)F)cc4)C3)c2)c1 [Example 148]	205 nM
OCCc1cccc(-c2ccnc(N[C@@H]3CCCC[C@H]3N[C@H]3CCCN(c4ccc(C(F)(F)F)cc4)C3)c2)c1 [Example 149]	30 nM
O=C(NC1CCCC1)c1cccc(-c2ccnc(N[C@@H]3CCCC[C@H]3N[C@H]3CCCN(c4ccc(C(F)(F)F)cc4)C3)c2)c1 [Example 150]	192 nM
OC1(c2cccc(-c3ccnc(N[C@@H]4CCCC[C@H]4N[C@H]4CCCN(c5ccc(C(F)(F)F)cc5)C4)c3)c2)CC1 [Example 151]	292 nM
OCCc1ccc(-c2ccnc(N[C@@H]3CCCC[C@H]3N[C@H]3CCCN(c4ccc(C(F)(F)F)cc4)C3)c2)cc1 [Example 152]	508 nM
OCCCc1cccc(-c2ccnc(N[C@@H]3CCCC[C@H]3N[C@H]3CCCN(c4ccc(C(F)(F)F)cc4)C3)c2)c1 [Example 153]	31 nM
OC1(c2cccc(-c3cnc(N[C@@H]4CCCC[C@H]4N[C@H]4CCCN(c5ccc(C(F)(F)F)cc5)C4)o3)c2)CC1 [Example 154]	36 nM
CC(C)(C)c1cccc(-c2ccnc(N[C@@H]3CCCC[C@H]3N[C@H]3CCCN(c4ccc(C(F)(F)F)cc4)C3)c2)c1 [Example 155]	235 nM
OCCc1ccccc1-c1ccnc(N[C@@H]2CCCC[C@H]2N[C@H]2CCCN(c3ccc(C(F)(F)F)cc3)C2)c1 [Example 156]	50 nM
FC(F)(F)c1ccc(N2CCC[C@H](N[C@@H]3CCCC[C@H]3Nc3cc(-c4ccc5scnc5c4)ccn3)C2)cc1 [Example 157]	194 nM
FC(F)(F)c1ccc(N2CCC[C@H](N[C@@H]3CCCC[C@H]3Nc3cc(-c4cccc(-n5cccn5)c4)ccn3)C2)cc1 [Example 158]	53 nM
CN(C)c1cccc(-c2ccnc(N[C@@H]3CCCC[C@H]3N[C@H]3CCCN(c4ccc(C(F)(F)F)cc4)C3)c2)c1 [Example 159]	239 nM
N#Cc1cccc(-c2cnc(N[C@@H]3CCCC[C@H]3N[C@H]3CCCN(c4ccc(C(F)(F)F)cc4)C3)o2)c1 [Example 160]	548 nM
OCCC#Cc1ccnc(N[C@@H]2CCCC[C@H]2N[C@H]2CCCN(c3ccc(C(F)(F)F)cc3)C2)c1 [Example 161]	31 nM
CC(C)(O)C#Cc1ccnc(N[C@@H]2CCCC[C@H]2N[C@H]2CCCN(c3ccc(C(F)(F)F)cc3)C2)c1 [Example 162]	546 nM
OCC#Cc1ccnc(N[C@@H]2CCCC[C@H]2N[C@H]2CCCN(c3ccc(C(F)(F)F)cc3)C2)c1 [Example 163]	74 nM

SMILES	EC50
FC(F)(F)c1ccc(N2CCC[C@H](N[C@@H]3CCCC[C@H]3Nc3cc(-c4cccc(N5CCCC5)c4)ccn3)C2)cc1 [Example 164]	104 nM
OCc1cc(-c2ccnc(N[C@@H]3CCCC[C@H]3N[C@H]3CCCN(c4ccc(C(F)(F)F)cc4)C3)c2)ccc1F [Example 165]	38 nM
OCCCC#Cc1ccnc(N[C@@H]2CCCC[C@H]2N[C@H]2CCCN(c3ccc(C(F)(F)F)cc3)C2)c1 [Example 166]	17 nM
C[C@H](O)c1cccc(-c2ccnc(N[C@@H]3CCCC[C@H]3N[C@H]3CCCN(c4ccc(C(F)(F)F)cc4)C3)c2)c1 [Example 167]	6 nM
C[C@@H](O)c1cccc(-c2ccnc(N[C@@H]3CCCC[C@H]3N[C@H]3CCCN(c4ccc(C(F)(F)F)cc4)C3)c2)c1 [Example 168]	14 nM
CC(C)(C)OC(=O)Nc1cccc(-c2cnc(N[C@@H]3CCCC[C@H]3N[C@H]3CCCN(c4ccc(C(F)(F)F)cc4)C3)o2)c1 [Example 169]	32 nM
CC(C)(O)c1cccc(-c2cnc(N[C@@H]3CCCC[C@H]3N[C@H]3CCCN(c4ccc(C(F)(F)F)cc4)C3)o2)c1 [Example 170]	48 nM
FC(F)(F)c1ccc(N2CCC[C@H](N[C@@H]3CCCC[C@H]3Nc3cc(-c4cn[nH]c4)ccn3)C2)cc1 [Example 171]	142 nM
Nc1cccc(-c2cnc(N[C@@H]3CCCC[C@H]3N[C@H]3CCCN(c4ccc(C(F)(F)F)cc4)C3)o2)c1 [Example 172]	5 nM
COC(=O)N(C)c1cccc(-c2ccnc(N[C@@H]3CCCC[C@H]3N[C@H]3CCCN(c4ccc(C(F)(F)F)cc4)C3)c2)c1 [Example 173]	920 nM
CC(=O)N(C)c1cccc(-c2ccnc(N[C@@H]3CCCC[C@H]3N[C@H]3CCCN(c4ccc(C(F)(F)F)cc4)C3)c2)c1 [Example 174]	363 nM
CNC(=O)Cc1cccc(-c2ccnc(N[C@@H]3CCCC[C@H]3N[C@H]3CCCN(c4ccc(C(F)(F)F)cc4)C3)c2)c1 [Example 175]	2 nM
FC(F)(F)c1ccc(N2CCC[C@H](N[C@@H]3CCCC[C@H]3Nc3ncc(-c4ccccc4)cn3)C2)cc1 [Example 176]	579 nM
FC(F)(F)Oc1cccc(-c2cnc(N[C@@H]3CCCC[C@H]3N[C@H]3CCCN(c4ccc(C(F)(F)F)cc4)C3)nc2)c1 [Example 177]	781 nM
NC(=O)c1cccc(-c2cnc(N[C@@H]3CCCC[C@H]3N[C@H]3C[C@@H]4C[C@H]3N(c3ccc(C(F)(F)F)cc3)C4)o2)c1 [Example 178]	2 nM
NC(=O)c1cccc(-c2ccnc(N[C@@H]3CCCC[C@H]3N[C@H]3C[C@@H]4C[C@H]3N(c3ccc(C(F)(F)F)cc3)C4)c2)c1 [Example 179]	7 nM
FC(F)(F)c1ccc(N2CCC[C@H](N[C@@H]3CCCC[C@H]3NC3=NOC(c4ccccc4)C3)C2)cc1 (stereo partly shown) [Example 180]	54 nM
FC(F)(F)Oc1ccc(-c2cnc(N[C@@H]3CCCC[C@H]3N[C@H]3C[C@@H]4C[C@H]3N(c3ccc(C(F)(F)F)cc3)C4)o2)cc1 [Example 181]	126 nM
FC(F)(F)c1ccc(N2CCC[C@H](N[C@@H]3CCCC[C@H]3Nc3ncc(Br)cn3)C2)cc1 [Example 182]	258 nM
